Target: T1, TRPC6 (transient receptor potential canonical 6) (Homo sapiens, UniProt Q9Y210)
T1 sequence (Q9Y210 1-931): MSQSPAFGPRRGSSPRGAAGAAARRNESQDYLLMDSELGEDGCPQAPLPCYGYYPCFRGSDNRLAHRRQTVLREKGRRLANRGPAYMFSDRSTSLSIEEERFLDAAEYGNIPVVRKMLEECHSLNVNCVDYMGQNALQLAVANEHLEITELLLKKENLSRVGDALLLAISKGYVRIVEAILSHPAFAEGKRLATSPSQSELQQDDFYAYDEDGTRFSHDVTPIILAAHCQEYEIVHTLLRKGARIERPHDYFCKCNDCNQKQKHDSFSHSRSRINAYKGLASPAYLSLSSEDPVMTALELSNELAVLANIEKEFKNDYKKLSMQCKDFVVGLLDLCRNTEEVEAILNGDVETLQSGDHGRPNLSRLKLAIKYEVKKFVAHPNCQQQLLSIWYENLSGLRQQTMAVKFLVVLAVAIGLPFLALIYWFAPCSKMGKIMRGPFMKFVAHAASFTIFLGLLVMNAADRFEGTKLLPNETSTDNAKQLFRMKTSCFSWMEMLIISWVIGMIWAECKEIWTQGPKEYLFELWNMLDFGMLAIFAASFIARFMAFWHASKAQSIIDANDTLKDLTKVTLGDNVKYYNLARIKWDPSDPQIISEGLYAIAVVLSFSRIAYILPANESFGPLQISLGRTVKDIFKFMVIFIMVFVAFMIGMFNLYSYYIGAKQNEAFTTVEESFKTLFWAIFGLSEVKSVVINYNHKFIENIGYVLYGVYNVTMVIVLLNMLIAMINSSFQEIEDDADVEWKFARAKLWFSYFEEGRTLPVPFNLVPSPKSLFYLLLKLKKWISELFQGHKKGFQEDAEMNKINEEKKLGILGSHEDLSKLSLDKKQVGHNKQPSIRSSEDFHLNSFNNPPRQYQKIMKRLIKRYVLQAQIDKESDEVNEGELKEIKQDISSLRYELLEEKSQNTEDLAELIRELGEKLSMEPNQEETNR
Experiment: Fluo-4 Ca2+ assay in TRPC6-HEK293 cells; also electrophysiology of GSK1702934A-evoked TRPC6 currents
Type: cell-based

IC50: 2440 nM
SMILES: COc1cccc2sc(N(CCN3CCCC3)C(=O)c3ccc4c(c3)OCO4)nc12 [PCC0208057]
